{"source": "the supplement of paper PMC10307832", "assay_in_all_cases": "relative viability (nuclei count vs DMSO), 5 days (fraction); higher = more cells survive", "key": {"NCI-H1650": {"test_system": "NCI-H1650", "in_short": "(§1)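 Each reported value is a median over duplicate plates. It expresses relative viability: treated-well nuclei count divided by vehicle-well nuclei count. Lung cancer cell lines in 1536-well plates were dosed by pin tool a day after seeding, alone with one drug or with a fixed anchor-drug dose plus five library-drug doses (not always all listed) in √10 steps, and nuclei were counted after 5 days.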"}, "NCI-H2405": {"test_system": "NCI-H2405", "in_short": "as §1"}, "LK-2": {"test_system": "LK-2", "in_short": "as §1"}, "RERF-LC-KJ": {"test_system": "RERF-LC-KJ", "in_short": "as §1"}, "NCI-H2342": {"test_system": "NCI-H2342", "in_short": "as §1"}, "NCI-H1755": {"test_system": "NCI-H1755", "in_short": "as §1"}, "LCLC-97TM1": {"test_system": "LCLC-97TM1", "in_short": "as §1"}, "NCI-H1355": {"test_system": "NCI-H1355", "in_short": "as §1"}, "NCI-H1734": {"test_system": "NCI-H1734", "in_short": "as §1"}, "PC-3 [JPC-3]": {"test_system": "PC-3 [JPC-3]", "in_short": "as §1"}, "NCI-H661": {"test_system": "NCI-H661", "in_short": "as §1"}, "HCC-827": {"test_system": "HCC-827", "in_short": "as §1"}, "NCI-H520": {"test_system": "NCI-H520", "in_short": "as §1"}, "H3255": {"test_system": "H3255", "in_short": "as §1"}, "PC-14": {"test_system": "PC-14", "in_short": "as §1"}, "EKVX": {"test_system": "EKVX", "in_short": "as §1"}, "NCI-H1975": {"test_system": "NCI-H1975", "in_short": "as §1"}, "NCI-H322M": {"test_system": "NCI-H322M", "in_short": "as §1"}, "HCC-15": {"test_system": "HCC-15", "in_short": "as §1"}}}
{"smiles": "CCN(CC)CCCCNc1ncc2cc(-c3cc(OC)cc(OC)c3)c(NC(=O)NC(C)(C)C)nc2n1", "note": "+ Nc1ncn([C@H]2C[C@H](O)[C@@H](CO)O2)c(=O)n1 [Decitabine] (partner 2 µM)", "values": [{"measurement": "relative viability", "setting": "NCI-H1650; first compound 0.01 µM", "result": 0.398}, {"measurement": "relative viability", "setting": "NCI-H1650; first compound 0.03162 µM", "result": 0.381}, {"measurement": "relative viability", "setting": "NCI-H1650; first compound 0.1 µM", "result": 0.397}, {"measurement": "relative viability", "setting": "NCI-H1650; first compound 0.3162 µM", "result": 0.368}, {"measurement": "relative viability", "setting": "NCI-H1650; first compound 1 µM", "result": 0.384}, {"measurement": "relative viability", "setting": "NCI-H2405; first compound 0.01 µM", "result": 0.778}, {"measurement": "relative viability", "setting": "NCI-H2405; first compound 0.03162 µM", "result": 0.728}, {"measurement": "relative viability", "setting": "NCI-H2405; first compound 0.1 µM", "result": 0.767}, {"measurement": "relative viability", "setting": "NCI-H2405; first compound 0.3162 µM", "result": 0.765}, {"measurement": "relative viability", "setting": "NCI-H2405; first compound 1 µM", "result": 0.702}, {"measurement": "relative viability", "setting": "LK-2; first compound 0.01 µM", "result": 0.305}, {"measurement": "relative viability", "setting": "LK-2; first compound 0.03162 µM", "result": 0.268}, {"measurement": "relative viability", "setting": "LK-2; first compound 0.1 µM", "result": 0.192}, {"measurement": "relative viability", "setting": "LK-2; first compound 0.3162 µM", "result": 0.217}, {"measurement": "relative viability", "setting": "LK-2; first compound 1 µM", "result": 0.175}, {"measurement": "relative viability", "setting": "RERF-LC-KJ; first compound 0.01 µM", "result": 0.697}, {"measurement": "relative viability", "setting": "RERF-LC-KJ; first compound 0.03162 µM", "result": 0.687}, {"measurement": "relative viability", "setting": "RERF-LC-KJ; first compound 0.1 µM", "result": 0.74}, {"measurement": "relative viability", "setting": "RERF-LC-KJ; first compound 0.3162 µM", "result": 0.717}, {"measurement": "relative viability", "setting": "RERF-LC-KJ; first compound 1 µM", "result": 0.603}, {"measurement": "relative viability", "setting": "NCI-H2342; first compound 0.01 µM", "result": 0.692}, {"measurement": "relative viability", "setting": "NCI-H2342; first compound 0.03162 µM", "result": 0.668}, {"measurement": "relative viability", "setting": "NCI-H2342; first compound 0.1 µM", "result": 0.697}, {"measurement": "relative viability", "setting": "NCI-H2342; first compound 0.3162 µM", "result": 0.781}, {"measurement": "relative viability", "setting": "NCI-H2342; first compound 1 µM", "result": 0.807}, {"measurement": "relative viability", "setting": "NCI-H1755; first compound 0.01 µM", "result": 0.72}, {"measurement": "relative viability", "setting": "NCI-H1755; first compound 0.03162 µM", "result": 0.715}, {"measurement": "relative viability", "setting": "NCI-H1755; first compound 0.1 µM", "result": 0.712}, {"measurement": "relative viability", "setting": "NCI-H1755; first compound 0.3162 µM", "result": 0.756}, {"measurement": "relative viability", "setting": "NCI-H1755; first compound 1 µM", "result": 0.685}, {"measurement": "relative viability", "setting": "LCLC-97TM1; first compound 0.01 µM", "result": 0.269}, {"measurement": "relative viability", "setting": "LCLC-97TM1; first compound 0.03162 µM", "result": 0.251}, {"measurement": "relative viability", "setting": "LCLC-97TM1; first compound 0.1 µM", "result": 0.321}, {"measurement": "relative viability", "setting": "LCLC-97TM1; first compound 0.3162 µM", "result": 0.272}, {"measurement": "relative viability", "setting": "LCLC-97TM1; first compound 1 µM", "result": 0.255}, {"measurement": "relative viability", "setting": "NCI-H1355; first compound 0.01 µM", "result": 0.364}, {"measurement": "relative viability", "setting": "NCI-H1355; first compound 0.03162 µM", "result": 0.368}, {"measurement": "relative viability", "setting": "NCI-H1355; first compound 0.1 µM", "result": 0.36}, {"measurement": "relative viability", "setting": "NCI-H1355; first compound 0.3162 µM", "result": 0.396}, {"measurement": "relative viability", "setting": "NCI-H1355; first compound 1 µM", "result": 0.339}, {"measurement": "relative viability", "setting": "NCI-H1734; first compound 0.01 µM", "result": 0.485}, {"measurement": "relative viability", "setting": "NCI-H1734; first compound 0.03162 µM", "result": 0.372}, {"measurement": "relative viability", "setting": "NCI-H1734; first compound 0.1 µM", "result": 0.534}, {"measurement": "relative viability", "setting": "NCI-H1734; first compound 0.3162 µM", "result": 0.473}, {"measurement": "relative viability", "setting": "NCI-H1734; first compound 1 µM", "result": 0.475}, {"measurement": "relative viability", "setting": "PC-3 [JPC-3]; first compound 0.03162 µM", "result": 0.708}, {"measurement": "relative viability", "setting": "PC-3 [JPC-3]; first compound 0.1 µM", "result": 0.928}, {"measurement": "relative viability", "setting": "PC-3 [JPC-3]; first compound 0.3162 µM", "result": 0.851}, {"measurement": "relative viability", "setting": "PC-3 [JPC-3]; first compound 1 µM", "result": 0.804}, {"measurement": "relative viability", "setting": "NCI-H661; first compound 0.01 µM", "result": 0.534}, {"measurement": "relative viability", "setting": "NCI-H661; first compound 0.03162 µM", "result": 0.529}, {"measurement": "relative viability", "setting": "NCI-H661; first compound 0.1 µM", "result": 0.572}, {"measurement": "relative viability", "setting": "NCI-H661; first compound 0.3162 µM", "result": 0.573}, {"measurement": "relative viability", "setting": "NCI-H661; first compound 1 µM", "result": 0.455}, {"measurement": "relative viability", "setting": "HCC-827; first compound 0.01 µM", "result": 0.311}, {"measurement": "relative viability", "setting": "HCC-827; first compound 0.03162 µM", "result": 0.369}, {"measurement": "relative viability", "setting": "HCC-827; first compound 0.1 µM", "result": 0.346}, {"measurement": "relative viability", "setting": "HCC-827; first compound 0.3162 µM", "result": 0.376}, {"measurement": "relative viability", "setting": "HCC-827; first compound 1 µM", "result": 0.284}, {"measurement": "relative viability", "setting": "NCI-H520; first compound 0.01 µM", "result": 0.51}, {"measurement": "relative viability", "setting": "NCI-H520; first compound 0.03162 µM", "result": 0.466}, {"measurement": "relative viability", "setting": "NCI-H520; first compound 0.1 µM", "result": 0.501}, {"measurement": "relative viability", "setting": "NCI-H520; first compound 0.3162 µM", "result": 0.313}, {"measurement": "relative viability", "setting": "NCI-H520; first compound 1 µM", "result": 0.202}, {"measurement": "relative viability", "setting": "H3255; first compound 0.01 µM", "result": 0.453}, {"measurement": "relative viability", "setting": "H3255; first compound 0.1 µM", "result": 0.65}, {"measurement": "relative viability", "setting": "H3255; first compound 0.3162 µM", "result": 0.712}, {"measurement": "relative viability", "setting": "H3255; first compound 1 µM", "result": 0.448}, {"measurement": "relative viability", "setting": "PC-14; first compound 0.01 µM", "result": 0.239}, {"measurement": "relative viability", "setting": "PC-14; first compound 0.03162 µM", "result": 0.298}, {"measurement": "relative viability", "setting": "PC-14; first compound 0.1 µM", "result": 0.262}, {"measurement": "relative viability", "setting": "PC-14; first compound 0.3162 µM", "result": 0.249}, {"measurement": "relative viability", "setting": "PC-14; first compound 1 µM", "result": 0.228}, {"measurement": "relative viability", "setting": "EKVX; first compound 0.03162 µM", "result": 0.323}, {"measurement": "relative viability", "setting": "EKVX; first compound 0.1 µM", "result": 0.329}, {"measurement": "relative viability", "setting": "EKVX; first compound 0.3162 µM", "result": 0.314}, {"measurement": "relative viability", "setting": "EKVX; first compound 1 µM", "result": 0.295}, {"measurement": "relative viability", "setting": "NCI-H1975; first compound 0.01 µM", "result": 0.396}, {"measurement": "relative viability", "setting": "NCI-H1975; first compound 0.03162 µM", "result": 0.395}, {"measurement": "relative viability", "setting": "NCI-H1975; first compound 0.1 µM", "result": 0.381}, {"measurement": "relative viability", "setting": "NCI-H1975; first compound 0.3162 µM", "result": 0.389}, {"measurement": "relative viability", "setting": "NCI-H1975; first compound 1 µM", "result": 0.358}, {"measurement": "relative viability", "setting": "NCI-H322M; first compound 0.01 µM", "result": 0.691}, {"measurement": "relative viability", "setting": "NCI-H322M; first compound 0.03162 µM", "result": 0.767}, {"measurement": "relative viability", "setting": "NCI-H322M; first compound 0.1 µM", "result": 0.687}, {"measurement": "relative viability", "setting": "NCI-H322M; first compound 0.3162 µM", "result": 0.696}, {"measurement": "relative viability", "setting": "NCI-H322M; first compound 1 µM", "result": 0.663}, {"measurement": "relative viability", "setting": "HCC-15; first compound 0.01 µM", "result": 0.691}, {"measurement": "relative viability", "setting": "HCC-15; first compound 0.03162 µM", "result": 0.635}, {"measurement": "relative viability", "setting": "HCC-15; first compound 0.1 µM", "result": 0.655}, {"measurement": "relative viability", "setting": "HCC-15; first compound 0.3162 µM", "result": 0.68}, {"measurement": "relative viability", "setting": "HCC-15; first compound 1 µM", "result": 0.51}]}
